Reference: article PMC5218480 (PLoS ONE, 2017)

System: MV-4-11 cells
Assay: Gene expression microarray analysis (Affymetrix PrimeView) and GSEA
Format: cell-based, human
Design: RFU PODN (11730768_x_at) / Fold change /veh PODN (11730768_x_at) / RFU LINC00158 (11744669_a_at) / Fold change /veh LINC00158 (11744669_a_at) / RFU DUSP10 (11751237_a_at) / Fold change /veh DUSP10 (11751237_a_at) / RFU ID3 (11757404_x_at) / Fold change /veh ID3 (11757404_x_at) / RFU PLEKHG5 (11737974_s_at) / Fold change /veh PLEKHG5 (11737974_s_at) / RFU LRRC4B (11730491_at) / Fold change /veh LRRC4B (11730491_at) / RFU GIMAP4 (11747438_a_at) / Fold change /veh GIMAP4 (11747438_a_at) / RFU KRT8 (11758183_x_at) / Fold change /veh KRT8 (11758183_x_at) / RFU CNN1 (11734310_a_at) / Fold change /veh CNN1 (11734310_a_at) / RFU VPS37D (11726825_at) / Fold change /veh VPS37D (11726825_at) / RFU C10orf10 (11716522_x_at) / Fold change /veh C10orf10 (11716522_x_at) / RFU KIR2DL2 /// KIR2DL4 /// KIR2DL5A /// KIR2DL5B /// KIR2DS1 /// KIR2DS2 /// KIR2DS3 /// KIR2DS4 /// KIR3DL3 /// KIR3DL3 /// KIR3DS1 (11738374_at) / Fold change /veh KIR2DL2 /// KIR2DL4 /// KIR2DL5A /// KIR2DL5B /// KIR2DS1 /// KIR2DS2 /// KIR2DS3 /// KIR2DS4 /// KIR3DL3 /// KIR3DL3 /// KIR3DS1 (11738374_at) / RFU C1QL1 (11718748_at) / Fold change /veh C1QL1 (11718748_at) / RFU TMPRSS4 (11747572_a_at) / Fold change /veh TMPRSS4 (11747572_a_at) / RFU HAMP (11756126_x_at) / Fold change /veh HAMP (11756126_x_at) / RFU RNFT2 (11725882_a_at) / Fold change /veh RNFT2 (11725882_a_at) / RFU NR4A2 (11747474_a_at) / Fold change /veh NR4A2 (11747474_a_at) / RFU ABCC12 (11746883_a_at) / Fold change /veh ABCC12 (11746883_a_at) / RFU TMEM136 (11760407_x_at) / Fold change /veh TMEM136 (11760407_x_at) / RFU CLDN22 /// WWC2 (11732394_at) / Fold change /veh CLDN22 /// WWC2 (11732394_at) / RFU HLA-DPB1 (11760878_x_at) / Fold change /veh HLA-DPB1 (11760878_x_at) / RFU SPINT1 (11716480_a_at) / Fold change /veh SPINT1 (11716480_a_at) / RFU GAP43 (11754022_s_at) / Fold change /veh GAP43 (11754022_s_at) / RFU A4GNT (11735810_at) / Fold change /veh A4GNT (11735810_at) / RFU PRB3 (11715151_x_at) / Fold change /veh PRB3 (11715151_x_at) / RFU TUBB4B (11761932_at) / Fold change /veh TUBB4B (11761932_at) / RFU CAPN14 (11732068_a_at) / Fold change /veh CAPN14 (11732068_a_at) / RFU TMCC2 (11721928_a_at) / Fold change /veh TMCC2 (11721928_a_at) / RFU IRGQ (11745062_a_at) / Fold change /veh IRGQ (11745062_a_at) / RFU FAM174B (11720279_a_at) / Fold change /veh FAM174B (11720279_a_at) / RFU TMPRSS4 (11748680_a_at) / Fold change /veh TMPRSS4 (11748680_a_at) / RFU FAM212B (11763350_a_at) / Fold change /veh FAM212B (11763350_a_at) / RFU PLEKHG5 (11743358_a_at) / Fold change /veh PLEKHG5 (11743358_a_at) / RFU ZSCAN30 (11745921_a_at) / Fold change /veh ZSCAN30 (11745921_a_at) / RFU CMKLR1 (11741424_a_at) / Fold change /veh CMKLR1 (11741424_a_at) / RFU LOC101060620 /// MAPK8IP1 (11723275_at) / Fold change /veh LOC101060620 /// MAPK8IP1 (11723275_at) / RFU SPTSSB (11747773_x_at) / Fold change /veh SPTSSB (11747773_x_at) / RFU PRSS12 (11739890_at) / Fold change /veh PRSS12 (11739890_at) / RFU BIN1 (11741810_x_at) / Fold change /veh BIN1 (11741810_x_at) / RFU WNT11 (11732464_a_at) / Fold change /veh WNT11 (11732464_a_at) / RFU C10orf10 (11716521_a_at) / Fold change /veh C10orf10 (11716521_a_at) / RFU C5orf56 (11738089_at) / Fold change /veh C5orf56 (11738089_at) / RFU CYB561 (11721691_x_at) / Fold change /veh CYB561 (11721691_x_at) / RFU ANKRD19P (11752326_a_at) / Fold change /veh ANKRD19P (11752326_a_at) / RFU OR2T12 /// OR2T33 /// OR2T8 (11738714_s_at) / Fold change /veh OR2T12 /// OR2T33 /// OR2T8 (11738714_s_at) / RFU VCAN (11748164_a_at) / Fold change /veh VCAN (11748164_a_at) / RFU JSRP1 (11732532_at) / Fold change /veh JSRP1 (11732532_at) / RFU KRTAP10-11 (11738290_x_at) / Fold change /veh KRTAP10-11 (11738290_x_at) / RFU MYO3A (11730013_a_at) / Fold change /veh MYO3A (11730013_a_at) / RFU EBF3 (11725865_a_at) / Fold change /veh EBF3 (11725865_a_at) / RFU CAMK2N1 (11719241_x_at) / Fold change /veh CAMK2N1 (11719241_x_at) / RFU C5orf56 (11738088_a_at) / Fold change /veh C5orf56 (11738088_a_at) / RFU OLFML3 (11715873_a_at) / Fold change /veh OLFML3 (11715873_a_at) / RFU LOC100653217 /// NTM (11731650_a_at) / Fold change /veh LOC100653217 /// NTM (11731650_a_at) / RFU MAPK11 (11762145_a_at) / Fold change /veh MAPK11 (11762145_a_at) / RFU FIZ1 (11724087_x_at) / Fold change /veh FIZ1 (11724087_x_at) / RFU OASL (11726364_x_at) / Fold change /veh OASL (11726364_x_at) / RFU SOX15 (11748057_x_at) / Fold change /veh SOX15 (11748057_x_at) / RFU CD79A (11719716_a_at) / Fold change /veh CD79A (11719716_a_at) / RFU HIST1H1D (11736915_at) / Fold change /veh HIST1H1D (11736915_at) / RFU CASKIN2 (11723855_a_at) / Fold change /veh CASKIN2 (11723855_a_at) / RFU LOC730098 (11760151_x_at) / Fold change /veh LOC730098 (11760151_x_at) / RFU OR4N2 (11742367_at) / Fold change /veh OR4N2 (11742367_at) / RFU PRRT2 (11749266_a_at) / Fold change /veh PRRT2 (11749266_a_at) / RFU SNX32 (11753110_a_at) / Fold change /veh SNX32 (11753110_a_at) / RFU CDHR5 (11726645_a_at) / Fold change /veh CDHR5 (11726645_a_at) / RFU RCAN1 (11760418_a_at) / Fold change /veh RCAN1 (11760418_a_at) / RFU FAM167A (11723789_a_at) / Fold change /veh FAM167A (11723789_a_at) / RFU FAM26E (11764081_at) / Fold change /veh FAM26E (11764081_at) / RFU ISYNA1 (11749810_s_at) / Fold change /veh ISYNA1 (11749810_s_at) / RFU ACY1 (11761880_at) / Fold change /veh ACY1 (11761880_at) / RFU 11764098_at / Fold change /veh 11764098_at / RFU SAMD14 (11745864_x_at) / Fold change /veh SAMD14 (11745864_x_at) / RFU NPB (11741838_a_at) / Fold change /veh NPB (11741838_a_at) / RFU TMPRSS6 (11731388_a_at) / Fold change /veh TMPRSS6 (11731388_a_at) / RFU KRTAP10-2 (11738614_at) / Fold change /veh KRTAP10-2 (11738614_at) / RFU ARHGAP8 /// PRR5-ARHGAP8 (11727945_x_at) / Fold change /veh ARHGAP8 /// PRR5-ARHGAP8 (11727945_x_at) / RFU KRTAP5-7 /// NADSYN1 (11734609_at) / Fold change /veh KRTAP5-7 /// NADSYN1 (11734609_at) / RFU RASL12 (11751679_a_at) / Fold change /veh RASL12 (11751679_a_at) / RFU CDKN2B (11736163_a_at) / Fold change /veh CDKN2B (11736163_a_at) / RFU PRF1 (11729649_at) / Fold change /veh PRF1 (11729649_at) / RFU, ZNF638 /// ZNF638-IT1 / Fold change vs veh, ZNF638 /// ZNF638-IT1 / RFU, PANK3 / Fold change vs veh, PANK3 / RFU, SH3YL1 / Fold change vs veh, SH3YL1 / RFU, ZEB2 / Fold change vs veh, ZEB2 / RFU, NRIP1 / Fold change vs veh, NRIP1 / RFU, PTTG1IP / Fold change vs veh, PTTG1IP / RFU, CAPN2 / Fold change vs veh, CAPN2 / RFU, MED14 / Fold change vs veh, MED14 / RFU, SNORA58 / Fold change vs veh, SNORA58 / RFU, C1orf63 / Fold change vs veh, C1orf63 / RFU, LRRFIP1 / Fold change vs veh, LRRFIP1 / RFU, NDUFAF7 / Fold change vs veh, NDUFAF7 / RFU, SLC12A2 / Fold change vs veh, SLC12A2 / RFU, IBTK / Fold change vs veh, IBTK / RFU, ESF1 / Fold change vs veh, ESF1 / Fold change vs veh, TMEM50B / RFU, TAOK1 / Fold change vs veh, TAOK1 / RFU, ACBD3 / Fold change vs veh, ACBD3 / RFU, TMA16 / Fold change vs veh, TMA16 / RFU, RWDD3 / Fold change vs veh, RWDD3 / RFU, BCAT1 / Fold change vs veh, BCAT1 / RFU, EDEM3 / Fold change vs veh, EDEM3 / RFU, TMEM33 / Fold change vs veh, TMEM33 / RFU, WDR75 / Fold change vs veh, WDR75 / RFU, AHCTF1 / Fold change vs veh, AHCTF1 / RFU, TFRC / Fold change vs veh, TFRC / RFU, ZDHHC17 / Fold change vs veh, ZDHHC17 / RFU, NOM1 / Fold change vs veh, NOM1 / RFU, ARL8B / Fold change vs veh, ARL8B / RFU, ZBTB11 / Fold change vs veh, ZBTB11 / RFU, TAMM41 / Fold change vs veh, TAMM41 / RFU, KIAA1704 /// LOC100996395 / Fold change vs veh, KIAA1704 /// LOC100996395 / RFU, ING1 / Fold change vs veh, ING1 / RFU, TRMT61B / Fold change vs veh, TRMT61B / RFU, FUBP3 / Fold change vs veh, FUBP3 / RFU, TP53 / Fold change vs veh, TP53 / RFU, TNKS2 / Fold change vs veh, TNKS2 / RFU, ZFP14 / Fold change vs veh, ZFP14 / RFU, ACTR2 / Fold change vs veh, ACTR2 / RFU, PPP3R1 / Fold change vs veh, PPP3R1 / RFU, PIK3R1 / Fold change vs veh, PIK3R1 / RFU, HNRNPA1 / Fold change vs veh, HNRNPA1 / RFU, RNF170 / Fold change vs veh, RNF170 / RFU, ZNF28 / Fold change vs veh, ZNF28 / RFU, RNGTT / Fold change vs veh, RNGTT / RFU, OGT / Fold change vs veh, OGT / RFU, BRD1 / Fold change vs veh, BRD1 / RFU, MARS / Fold change vs veh, MARS / RFU, ZNF655 / Fold change vs veh, ZNF655 / RFU, FAHD1 / Fold change vs veh, FAHD1 / RFU, BDP1 / Fold change vs veh, BDP1 / RFU, LRRCC1 / Fold change vs veh, LRRCC1 / RFU, ARID1A / Fold change vs veh, ARID1A / RFU, ZNF146 / Fold change vs veh, ZNF146 / RFU, ZNF330 / Fold change vs veh, ZNF330 / RFU, GPN3 / Fold change vs veh, GPN3 / RFU, C9orf123 / Fold change vs veh, C9orf123 / RFU, N4BP2L2 / Fold change vs veh, N4BP2L2 / RFU, ARFIP1 / Fold change vs veh, ARFIP1 / RFU, FAM179B / Fold change vs veh, FAM179B / RFU, BCL10 / Fold change vs veh, BCL10 / RFU, UHRF1BP1L / Fold change vs veh, UHRF1BP1L / RFU, BET1 / Fold change vs veh, BET1 / RFU, CNOT2 / Fold change vs veh, CNOT2 / RFU, ZNF268 / Fold change vs veh, ZNF268 / Fold change vs veh, ZNF507 / RFU, DGCR2 / Fold change vs veh, DGCR2 / RFU, WDSUB1 / Fold change vs veh, WDSUB1 / Fold change vs veh, HSP90B1 /// MIR3652 / RFU, ADSS / Fold change vs veh, ADSS / RFU, GK / Fold change vs veh, GK / RFU, ZNF148 / Fold change vs veh, ZNF148 / RFU, TAF9 / Fold change vs veh, TAF9 / RFU, SLC1A5 / Fold change vs veh, SLC1A5 / RFU, SLMO2 / Fold change vs veh, SLMO2 / RFU, ABCC4 / Fold change vs veh, ABCC4 / RFU, LOC101060439 /// RAP1B / Fold change vs veh, LOC101060439 /// RAP1B / RFU, RFX7 / Fold change vs veh, RFX7 / RFU, GTPBP10 / Fold change vs veh, GTPBP10 / RFU, CNEP1R1 / Fold change vs veh, CNEP1R1 / RFU, BIVM-ERCC5 /// ERCC5 / Fold change vs veh, BIVM-ERCC5 /// ERCC5 / RFU, ILF3 / Fold change vs veh, ILF3 / RFU 11762660_at / Fold change /veh 11762660_at / RFU VCAN (11757783_s_at) / Fold change /veh VCAN (11757783_s_at) / RFU DDX43 (11728927_at) / Fold change /veh DDX43 (11728927_at) / RFU KRT8 (11758188_x_at) / Fold change /veh KRT8 (11758188_x_at) / RFU NKD1 (11759106_at) / Fold change /veh NKD1 (11759106_at) / RFU SRD5A1 (11742802_a_at) / Fold change /veh SRD5A1 (11742802_a_at) / RFU TPSAB1 /// TPSB2 (11721975_s_at) / Fold change /veh TPSAB1 /// TPSB2 (11721975_s_at) / RFU GSTM3 (11746129_a_at) / Fold change /veh GSTM3 (11746129_a_at) / RFU IL23R (11737362_x_at) / Fold change /veh IL23R (11737362_x_at) / RFU TMEM51 (11727254_a_at) / Fold change /veh TMEM51 (11727254_a_at) / RFU PIWIL2 (11732686_x_at) / Fold change /veh PIWIL2 (11732686_x_at) / RFU ORM1 (11744905_x_at) / Fold change /veh ORM1 (11744905_x_at) / RFU CCDC152 (11743942_at) / Fold change /veh CCDC152 (11743942_at) / RFU ECM1 (11717891_a_at) / Fold change /veh ECM1 (11717891_a_at) / RFU IL23R (11748794_a_at) / Fold change /veh IL23R (11748794_a_at) / RFU TNFAIP8L3 (11732012_x_at) / Fold change /veh TNFAIP8L3 (11732012_x_at) / RFU MBOAT4 (11741988_at) / Fold change /veh MBOAT4 (11741988_at) / RFU 11764193_at / Fold change /veh 11764193_at / RFU TMEM53 (11763286_at) / Fold change /veh TMEM53 (11763286_at) / RFU MAGEB2 (11727129_at) / Fold change /veh MAGEB2 (11727129_at) / RFU TMEM200A (11744735_a_at) / Fold change /veh TMEM200A (11744735_a_at) / RFU CCDC152 (11751479_a_at) / Fold change /veh CCDC152 (11751479_a_at) / RFU FAM211A (11726209_a_at) / Fold change /veh FAM211A (11726209_a_at) / RFU RGS16 (11746705_a_at) / Fold change /veh RGS16 (11746705_a_at) / RFU VCAN (11755009_s_at) / Fold change /veh VCAN (11755009_s_at) / RFU RHOB (11743442_s_at) / Fold change /veh RHOB (11743442_s_at) / RFU RGS16 (11720943_a_at) / Fold change /veh RGS16 (11720943_a_at) / RFU RGS16 (11720944_at) / Fold change /veh RGS16 (11720944_at) / RFU, VPS4B / Fold change vs veh, VPS4B / RFU, CREB1 / Fold change vs veh, CREB1 / RFU, DNAJC13 / Fold change vs veh, DNAJC13 / RFU, GNAQ / Fold change vs veh, GNAQ / RFU, CDK5R1 / Fold change vs veh, CDK5R1 / RFU, ZRANB3 / Fold change vs veh, ZRANB3 / RFU, CUL4A / Fold change vs veh, CUL4A / RFU, CCNY / Fold change vs veh, CCNY / RFU, UFL1 / Fold change vs veh, UFL1 / RFU, COG3 / Fold change vs veh, COG3 / RFU, DIAPH2 / Fold change vs veh, DIAPH2 / RFU, SKA2 / Fold change vs veh, SKA2 / RFU, AFF3 / Fold change vs veh, AFF3 / RFU, LMF1 / Fold change vs veh, LMF1 / RFU, IPO11 / Fold change vs veh, IPO11 / RFU, DFFB / Fold change vs veh, DFFB / RFU, FOXP1 / Fold change vs veh, FOXP1 / RFU, CARD8 / Fold change vs veh, CARD8 / RFU, STRN3 / Fold change vs veh, STRN3 / RFU, ADK / Fold change vs veh, ADK / RFU, RASSF2 / Fold change vs veh, RASSF2 / RFU, WIPF1 / Fold change vs veh, WIPF1 / RFU, LARP1B / Fold change vs veh, LARP1B / RFU, RASA1 / Fold change vs veh, RASA1 / RFU, RB1 / Fold change vs veh, RB1 / RFU, PPFIA1 / Fold change vs veh, PPFIA1 / RFU, MAT2A / Fold change vs veh, MAT2A / RFU, CCT5 / Fold change vs veh, CCT5 / RFU, WDR92 / Fold change vs veh, WDR92 / RFU, CUX1 / Fold change vs veh, CUX1 / RFU, TTC7A / Fold change vs veh, TTC7A / RFU, TMEM135 / Fold change vs veh, TMEM135 / RFU, DEPTOR / Fold change vs veh, DEPTOR / RFU, CPM / Fold change vs veh, CPM / RFU, DNAJB6 / Fold change vs veh, DNAJB6 / RFU, CACNA2D3 / Fold change vs veh, CACNA2D3 / RFU, DTX4 / Fold change vs veh, DTX4 / RFU, TFCP2 / Fold change vs veh, TFCP2 / RFU, GMCL1 /// GMCL1P1 / Fold change vs veh, GMCL1 /// GMCL1P1 / RFU, AEBP2 / Fold change vs veh, AEBP2 / RFU, SNHG1 /// SNORD22 /// SNORD25 /// SNORD26 /// SNORD27 /// SNORD28 /// SNORD29 /// SNORD31 / Fold change vs veh, SNHG1 /// SNORD22 /// SNORD25 /// SNORD26 /// SNORD27 /// SNORD28 /// SNORD29 /// SNORD31 / Fold change (Aza/veh), C12orf56 (ProbeSet 11735607_a_at) / Fold change (ACY-1035/veh), C12orf56 (ProbeSet 11735607_a_at) / Fold change (Aza/veh), FGFR1OP (ProbeSet 11751329_s_at) / Fold change (ACY-1035/veh), FGFR1OP (ProbeSet 11751329_s_at) / Fold change (Aza/veh), VPS36 (ProbeSet 11739960_a_at) / Fold change (ACY-1035/veh), VPS36 (ProbeSet 11739960_a_at) / RFU SYPL1 (11715823_x_at) / Fold change /veh SYPL1 (11715823_x_at) / RFU IGFBP7 (11715501_s_at) / Fold change /veh IGFBP7 (11715501_s_at) / RFU REEP3 (11722064_at) / Fold change /veh REEP3 (11722064_at) / RFU IGLL1 (11728026_x_at) / Fold change /veh IGLL1 (11728026_x_at): dose or concentration left out as unconfirmed
Details: MV-4-11 cells, 48 hours

Nc1ncn([C@@H]2O[C@H](CO)[C@@H](O)[C@H]2O)c(=O)n1 [azacitidine]
RFU PRF1 (11729649_at): 19.15 RFU
